Measurements: ChEMBL document CHEMBL1137032, “Nonpeptide alpha V beta 3 antagonists. Part 10: In vitro and in vivo evaluation of a potent 7-methyl substituted tetrahydro-[1,8]naphthyridine derivative” (Bioorg Med Chem Lett, 2004)
Values joined by “and” are separate entries in the source; they are usually repeats but may differ in a detail not shown here. Equal entries are not always repeated.

Tests used:
[1] = Partition coefficient (logP); format: physicochemical; conditions: octanol/water
[2] = biological target: Integrin alpha-V/beta-3 (Homo sapiens) (UniProt P05106+P06756); assay: In vitro binding affinity against integrin Alpha-v Beta3 receptor in SPA assay; format: protein-complex assay
[3] = Human plasma binding affinity was determined; format: ADME, cell-free; conditions: read-out: PB (converted)
[4] = Bioavailability in rhesus Monkey; format: ADME, organism-based, Macaca mulatta; conditions: in vivo
[5] = Effect was measured in male rats on distal femoral metaphysis bone mineral density; format: ADME; conditions: rat
[6] = Plasma clearance in rhesus monkey; format: ADME, organism-based; conditions: cercopithecidae, in vivo
[7] = Bioavailability in rat; format: ADME, organism-based; conditions: in vivo
[8] = Bioavailability in dog; format: ADME, organism-based, Canis lupus familiaris; conditions: in vivo
[9] = Plasma clearance in rat; format: ADME, organism-based; conditions: in vivo
[10] = Plasma clearance in dog; format: ADME, organism-based, Canis lupus familiaris; conditions: in vivo
[11] = Clearance value in rhesus monkey; format: ADME, organism-based; conditions: cercopithecidae, in vivo
[12] = Bioavailability in rhesus monkey; format: ADME, organism-based; conditions: in vivo
[13] = Clearance value in dog; format: ADME, organism-based, Canis lupus familiaris; conditions: in vivo
[14] = Clearance value in rat; format: ADME, organism-based; conditions: in vivo
[15] = Half life in dog; format: ADME, Canis lupus familiaris; conditions: in vivo

logP [1] | SPAV3 [2] [nM] | fraction unbound [3] | bioavailability [4] [%] | clearance [6] [mL/min/kg] | bioavailability [7] [%] | bioavailability [8] [%] | clearance [9] [mL/min/kg] | clearance [10] [mL/min/kg] | clearance [11] [mL/min/kg] | bioavailability [12] [%] | clearance [13] [mL/min/kg] | clearance [14] [mL/min/kg] | half-life [15] [h] | Structure (SMILES) | DFMBMD [5]
0.56 | 0.11 | 0.08 |  |  |  |  |  |  |  |  |  |  |  | COc1ccc([C@H](CC(=O)O)N2CCN(CCCc3ccc4c(n3)N[C@H](C)CC4)C2=O)cn1 | 
0.69 | 0.11 | 0.05 | 75 | 3.5 | 50 | 83 | 41 | 1.7 |  |  |  |  |  | COc1ccc([C@H](CC(=O)O)N2CCN(CCCc3ccc4c(n3)N[C@@H](C)CC4)C2=O)cn1 | 137 mg/Ecm and 147.9 mg/Ecm and 161 mg/Ecm and 141.1 mg/Ecm and 156.6 mg/Ecm
 | 0.08 | 0.12 |  |  |  |  |  |  | 9 | 74 | 6.4 | 47 |  | COc1ccc([C@H](CC(=O)O)N2CCN(CCCc3ccc4c(n3)NCCC4)C2=O)cn1 | 133 mg/Ecm and 145 mg/Ecm and 157.2 mg/Ecm
0.62 | 0.13 | 0.22 |  |  |  | 55 |  | 18 |  |  |  |  | 2.2 | COc1ccc([C@H](CC(=O)O)N2CCN(CCCc3nc4c(cc3C)CCCN4)C2=O)cn1 | 
